The structures appear in SMILES notation. Like-named read-outs stand apart in the source and are kept apart here.

The text below walks through data of US20220313656A1, “NEW CLASS OF ANTIBIOTICS HAVING LOW MIC-VALUES TOWARDS DIFFERENT STRAINS OF BACTERIA” (priority 2019, published 2022).

Common to all, as to assay: MIC, serial dilution method (CLSI)
One test deals with S. aureus CC398. The class given is cell-based, Staphylococcus aureus. Here is the method:
(§1) These inoculums were each in diluted 1:100 in Müller Hinton (MH) broth (Sigma, Copenhagen, Denmark). From the diluted inoculums 100 μl was transferred to each well in a 96-well plate and mixed with the compound to be MIC determined. The plate was incubated for 24 hours at 37° C. (without shaking). The MIC value was determined as the lowest concentration in which no bacterial growth could be visually detected. All MIC determinations were done in duplicates. […] Since all derivatives are new, no control strains (with reference MIC values) were available.

A further test deals with S. aureus USA300. The class given is cell-based, Staphylococcus aureus. Here is the method: as §1
For another test, the system named is E. faecalis. The class given is cell-based, Enterococcus faecalis. Here is the method:
as §1

In another test the test system is E. coli APEC O2. The class given is cell-based, Escherichia coli. The procedure: as §1
The test system of test [1] is Staphylococus pseudintermedius. The format is cell-based, Staphylococcus pseudintermedius. Here is the method:
as §1

In another test the test system is E. faecium. The class given is cell-based, Enterococcus faecium. Here is the method:
as §1

A further test relates to Bacillus cereus. The class given is cell-based. Here is the method:
as §1

A further test deals with Listeria monocytogenes. The format is cell-based. Here is the method:
as §1

For a further test, the system named is Salmonella enteritidis. The format is cell-based. The procedure:
as §1

The next test concerns Streptococcus equi. The format is cell-based. The procedure:
as §1

Setting [2] is: S. aureus CC398 (MRSA strain), MH broth, 24 hours at 37° C., set to 256 if growth at […].
Setting [3] is: S. aureus USA300, MH broth, 24 hours at 37° C., set to 256 if growth at […].
Where [4] appears, read: E. faecalis, MH broth, 24 hours at 37° C., set to 256 if growth at […].
Setting [5] is: E. coli APEC O2, MH broth, 24 hours at 37° C., set to 256 if growth at […].
The mark [6] stands for this setting: Staphylococus pseudintermedius, MH broth, 24 hours at 37° C., set to 256 if growth at […].
Setting [7] is: E. faecium, MH broth, 24 hours at 37° C., set to 256 if growth at […].
Where [8] appears, read: MH broth, 24 hours at 37° C., set to 256 if growth at […].
Where [9] appears, read: Salmonella enteritidis, MH broth, 24 hours at 37° C., set to 256 if growth at […].
Where [10] appears, read: Staphylococcus aureus, MRSA, 24 h, read-out: MIC.
Where [11] appears, read: Staphylococcus aureus, USA300, 24 h, read-out: MIC.
The mark [12] stands for this setting: Enterococcus faecalis, 24 h, read-out: MIC.
Setting [13] is: Escherichia coli, APECO2, 24 h, read-out: MIC.
Where [14] appears, read: Staphylococcus pseudintermedius, 24 h, read-out: MIC.
[15] abbreviates: Enterococcus faecium, 24 h, read-out: MIC.
Where [16] appears, read: Salmonella enterica, ENTERITIDIS, 24 h, read-out: MIC.

Regarding `CCOC(=O)CC[N+](C)(C)CCCN1c2ccccc2Sc2ccc(Cl)cc21` [Chlorpromazine 3-Ethoxy-3-oxo-1-propyl], the MIC against S. aureus CC398 (setting [2]) worked out at 64 µg/mL; against S. aureus USA300 (setting [3]), 64 µg/mL; against E. faecalis (setting [4]), 64 µg/mL; with E. coli APEC O2 (setting [5]), 128 µg/mL; in [1] (setting [6]), 32 µg/mL; with E. faecium (setting [7]), 32 µg/mL. For the same molecule, the MIC in the test on Bacillus cereus (setting [8]) came to 128 µg/mL; in the test with Listeria monocytogenes (setting [8]), 64 µg/mL; against Salmonella enteritidis (setting [9]), 64 µg/mL; in the test with Streptococcus equi (setting [8]), 32 µg/mL.

As for `CC(C)[N+](C)(C)CCCN1c2ccccc2Sc2ccc(Cl)cc21.[Br-]` [Compound S4, 3-(2-chloro-10H-phenothiazin-10-yl)-N-isopropyl-N,N-dimethylpropan-1-aminium bromide], the MIC was determined as 16 µg/mL in the test on S. aureus CC398 (setting [10]); 16 µg/mL with S. aureus USA300 (setting [11]); 128 µg/mL in the test with E. faecalis (setting [12]); 128 µg/mL with E. coli APEC O2 (setting [13]); 8 µg/mL in test [1] (setting [14]); 64 µg/mL in the test with E. faecium (setting [15]). The minimal inhibitory concentration (MIC) with Bacillus cereus (24 h, read-out: MIC) was 32 µg/mL; in the test with Listeria monocytogenes (24 h, read-out: MIC), 32 µg/mL; with Salmonella enteritidis (setting [16]), 128 µg/mL; in the test with Streptococcus equi (24 h, read-out: MIC), 32 µg/mL.

Take `C[N+](C)(C)CCCN1c2ccccc2Sc2ccc(Cl)cc21.[I-]` [Compound S2, 3-(2-chloro-10H-phenothiazin-10-yl)-N,N,N-trimethylpropan-1-aminium iodide]: the MIC stood at 32 µg/mL with S. aureus CC398 (setting [10]); 32 µg/mL with S. aureus USA300 (setting [11]); 128 µg/mL with E. faecalis (setting [12]); 256 µg/mL in the test with E. coli APEC O2 (setting [13]); 8 µg/mL in [1] (setting [14]); 32 µg/mL with E. faecium (setting [15]). For the same molecule, the MIC was found to be 32 µg/mL with Bacillus cereus (24 h, read-out: MIC); 64 µg/mL in the test with Listeria monocytogenes (24 h, read-out: MIC); 256 µg/mL in the test on Salmonella enteritidis (setting [16]); 16 µg/mL with Streptococcus equi (24 h, read-out: MIC).

As for `CC(C)[N+](C)(C)C(C)CN1c2ccccc2Sc2ccccc21.[Br-]` (stereo not shown) [Compound S15, N-isopropyl-N,N-dimethyl-1-(10H-phenothiazin-10-yl)propan-2-aminium bromide], the MIC with S. aureus CC398 (setting [10]) was determined as 16 µg/mL; in the test on S. aureus USA300 (setting [11]), 64 µg/mL; in the test with E. faecalis (setting [12]), 128 µg/mL; in the test with E. coli APEC O2 (setting [13]), 128 µg/mL; in [1] (setting [14]) it was 32 µg/mL; in the test with E. faecium (setting [15]) it was 128 µg/mL. In addition, the minimal inhibitory concentration (MIC) was found to be 128 µg/mL in the test with Bacillus cereus (24 h, read-out: MIC); 128 µg/mL in the test on Listeria monocytogenes (24 h, read-out: MIC); 128 µg/mL in the test on Salmonella enteritidis (setting [16]); 256 µg/mL in the test on Streptococcus equi (24 h, read-out: MIC).

As for `CC[N+](C)(C)CCCN1c2ccccc2Sc2ccc(Cl)cc21.[Br-]` [Compound S3, 3-(2-chloro-10H-phenothiazin-10-yl)-N-ethyl-N,N-dimethylpropan-1-aminium bromide], the MIC in the test on S. aureus CC398 (setting [10]) was found to be 16 µg/mL; with S. aureus USA300 (setting [11]) it was 16 µg/mL; in the test on E. faecalis (setting [12]) it was 128 µg/mL; with E. coli APEC O2 (setting [13]), 256 µg/mL; in test [1] (setting [14]) it was 8 µg/mL; in the test on E. faecium (setting [15]), 32 µg/mL. For the same molecule, the MIC in the test on Bacillus cereus (24 h, read-out: MIC) is 32 µg/mL; in the test on Listeria monocytogenes (24 h, read-out: MIC), 32 µg/mL; in the test with Salmonella enteritidis (setting [16]), 256 µg/mL; in the test with Streptococcus equi (24 h, read-out: MIC), 16 µg/mL.

Turning to `C=CC[N+](C)(C)CCC=C1c2ccccc2Sc2ccc(Cl)cc21` [Chlorprothixene 2-Propene-1-yl], the MIC against S. aureus CC398 (setting [2]) was found to be 16 µg/mL; against S. aureus USA300 (setting [3]) it was 16 µg/mL; in the test with E. faecalis (setting [4]), 128 µg/mL; against E. coli APEC O2 (setting [5]) it was 128 µg/mL; in [1] (setting [6]), 8 µg/mL; in the test with E. faecium (setting [7]), 64 µg/mL. Moreover, the MIC in the test with Bacillus cereus (setting [8]) amounted to 32 µg/mL; in the test on Listeria monocytogenes (setting [8]) it was 32 µg/mL; in the test on Salmonella enteritidis (setting [9]), 128 µg/mL; with Streptococcus equi (setting [8]), 8 µg/mL.

Take `C[N+](C)(C)CC/C=C1/c2ccccc2Sc2ccc(Cl)cc21.[I-]` [Compound S35, (Z)-3-(2-chloro-9H-thioxanthen-9-ylidene)-N,N,N-trimethylpropan-1-aminium iodide]: the MIC (with S. aureus CC398 (setting [10]); in the test with S. aureus USA300 (setting [11]); in the test with E. faecalis (setting [12]); with E. coli APEC O2 (setting [13]); in [1] (setting [14]); with E. faecium (setting [15])) was 256 µg/mL each time. Moreover, the MIC was determined as 128 µg/mL in the test with Bacillus cereus (24 h, read-out: MIC); 256 µg/mL in the test on Listeria monocytogenes (24 h, read-out: MIC); 256 µg/mL in the test with Salmonella enteritidis (setting [16]); 256 µg/mL in the test with Streptococcus equi (24 h, read-out: MIC).
